# Measurements as given in patent US12403086B2, “Solid drug tablets for implantable drug delivery devices” (TARIS Biomedical LLC, priority 2009, dated 2025).
# Tests used:
# [1] = In vitro drug release from silicone tube devices loaded with lidocaine base tablets, with varying numbers of apertures; format: physicochemical; settings: silicone tubes about 3 cm, payload about 60 mg, in vitro in water at about 37° C.
# Procedure: Another study was performed to investigate the feasibility of delivering drug from a device through both a wall of a drug reservoir and from an aperture in the wall of the drug reservoir. Devices were formed form silicone tubes having a length of about 3 cm. The devices were loaded with solid drug tablets of lidocaine base, for a total payload of about 60 mg. […] The devices were tested in vitro in water at about 37° C.
# [2] = In vitro drug release from silicone tube devices loaded with solid lidocaine tablets (diffusion through the wall of the drug reservoir); format: physicochemical; settings: silicone tube ID about 0.060 in, OD 0.076 in, length about 3 cm, payload about 60 mg, no aperture; in vitro in water at about 37° C.
# Procedure: A study was performed to determine the feasibility of delivering drug through the wall of a drug reservoir via diffusion. Devices were formed form silicone tubes having an inner diameter of about 0.060 inches, an outer diameter of 0.076 inches, and a length of about 3 cm. The devices were loaded with solid drug tablets of lidocaine, for a total payload of about 60 mg. Some of the devices included an aperture formed through the tube wall, the aperture having a diameter of 150 μm. These devices were loaded with solid tablets of either lidocaine hydrochloride monohydrate or a combination of lidocaine hydrochloride monohydrate and lidocaine base. […] The devices were tested in vitro in water at about 37° C.
smiles,measurement,setting,value
"CCN(CC)CC(=O)Nc1c(C)cccc1C [lidocaine base, lidocaine]",release from silicone tube without apertures,[1]; no apertures (ID 0.060/OD 0.076 in and ID 0.062/OD 0.095 in),can be released from a silicone tube without any apertures
same,effect of apertures on release rate,"[1]; 0, 1 (150 μm), 2, 30 or 60 (360 μm) apertures",release rate can be increased by adding apertures to the device
same,delivery of drug via diffusion through the silicone wall of the drug reservoir,[2],feasible to deliver drug via diffusion through a silicone wall without an aperture
